Square brackets hold non-standard residues; d marks the D form. Peptide text beside a SMILES is read from it. Phe(4-Cl) = N[C@@H](Cc1ccc(Cl)cc1)C(=O)O; Phe(2-Cl) = N[C@@H](Cc1ccccc1Cl)C(=O)O; Cha = N[C@@H](CC1CCCCC1)C(=O)O
Target: T1, Androgen receptor (Homo sapiens, UniProt P10275)
T1 sequence (P10275 whole entry): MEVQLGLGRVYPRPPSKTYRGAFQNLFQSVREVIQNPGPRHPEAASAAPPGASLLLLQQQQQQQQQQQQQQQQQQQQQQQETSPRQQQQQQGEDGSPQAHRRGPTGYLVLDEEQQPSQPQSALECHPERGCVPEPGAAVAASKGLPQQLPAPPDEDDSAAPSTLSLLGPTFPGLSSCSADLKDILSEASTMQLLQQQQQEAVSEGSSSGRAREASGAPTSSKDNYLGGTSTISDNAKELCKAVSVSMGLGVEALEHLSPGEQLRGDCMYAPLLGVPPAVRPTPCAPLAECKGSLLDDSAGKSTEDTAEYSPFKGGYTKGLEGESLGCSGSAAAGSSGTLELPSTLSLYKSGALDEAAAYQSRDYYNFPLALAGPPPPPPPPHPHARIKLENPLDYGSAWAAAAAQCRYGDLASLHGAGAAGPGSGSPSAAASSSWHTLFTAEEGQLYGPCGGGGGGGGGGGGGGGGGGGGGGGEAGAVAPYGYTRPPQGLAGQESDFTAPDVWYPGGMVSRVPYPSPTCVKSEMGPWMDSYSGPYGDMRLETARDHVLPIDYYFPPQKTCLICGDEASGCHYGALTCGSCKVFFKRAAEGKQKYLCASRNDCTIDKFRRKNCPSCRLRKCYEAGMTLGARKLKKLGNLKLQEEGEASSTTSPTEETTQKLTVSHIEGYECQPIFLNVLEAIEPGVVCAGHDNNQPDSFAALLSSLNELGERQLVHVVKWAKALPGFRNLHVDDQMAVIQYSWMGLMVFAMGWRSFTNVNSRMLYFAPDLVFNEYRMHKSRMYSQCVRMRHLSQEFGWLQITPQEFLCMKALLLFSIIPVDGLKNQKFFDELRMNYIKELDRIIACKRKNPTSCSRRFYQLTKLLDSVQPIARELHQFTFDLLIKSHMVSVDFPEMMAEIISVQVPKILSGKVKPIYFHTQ
Test: Displacement of fluorescein-CSSRFESLFAGEKESR from human androgen receptor-LBD after 1 hr by fluorescence polarization assay

Ki	Structure (SMILES)
3 µM	CC(C)C[C@H](NC(=O)[C@H](CS)NC(=O)[C@H](C)N)C(=O)N[C@@H](Cc1ccccc1)C(=O)N[C@@H](CC(N)=O)C(=O)N[C@@H](CS)C(=O)N[C@@H](CC(C)C)C(=O)N[C@@H](Cc1ccccc1)C(=O)N[C@@H](CCC(=O)O)C(=O)NCC(=O)N[C@@H](CC(N)=O)C(=O)N[C@@H](CC(=O)O)C(=O)N[C@@H](CCC(=O)O)C(=O)N[C@@H](CCC(=O)O)C(=O)N[C@H](C(=O)N[C@@H](CS)C(=O)N[C@@H](CCCCN)C(=O)N[C@@H](CCC(=O)O)C(=O)N[C@@H](Cc1c[nH]c2ccccc12)C(=O)N[C@@H](CS)C(=O)O)[C@@H](C)O (H-ACLFNCLFEGNDEETCKEWC-OH)
12 µM	CC(C)C[C@H](NC(=O)[C@H](CS)NC(=O)[C@H](CC(N)=O)NC(=O)[C@H](Cc1ccccc1)NC(=O)[C@H](CCCNC(=N)N)NC(=O)[C@H](CS)NC(=O)[C@H](C)N)C(=O)N[C@@H](Cc1ccccc1)C(=O)N[C@@H](CCC(=O)O)C(=O)NCC(=O)N[C@@H](CC(N)=O)C(=O)N[C@@H](CC(=O)O)C(=O)N[C@@H](CCC(=O)O)C(=O)N[C@@H](CCC(=O)O)C(=O)N[C@H](C(=O)N[C@@H](CS)C(=O)N[C@@H](CCCCN)C(=O)N[C@@H](CCC(=O)O)C(=O)N[C@@H](Cc1c[nH]c2ccccc12)C(=O)N[C@@H](CS)C(=O)O)[C@@H](C)O (H-ACRFNCLFEGNDEETCKEWC-OH)
4 µM	CC(C)C[C@H](NC(=O)[C@H](CS)NC(=O)[C@H](Cc1ccccc1)NC(=O)[C@H](Cc1ccccc1)NC(=O)[C@H](Cc1ccc(O)cc1)NC(=O)[C@H](CS)NC(=O)[C@H](C)N)C(=O)N[C@@H](Cc1ccccc1)C(=O)N[C@@H](CCC(=O)O)C(=O)NCC(=O)N[C@@H](CC(N)=O)C(=O)N[C@@H](CC(=O)O)C(=O)N[C@@H](CCC(=O)O)C(=O)N[C@@H](CCC(=O)O)C(=O)N[C@H](C(=O)N[C@@H](CS)C(=O)N[C@@H](CCCCN)C(=O)N[C@@H](CCC(=O)O)C(=O)N[C@@H](Cc1c[nH]c2ccccc12)C(=O)N[C@@H](CS)C(=O)O)[C@@H](C)O (H-ACYFFCLFEGNDEETCKEWC-OH)
7 µM	CC(C)C[C@H](NC(=O)[C@H](CS)NC(=O)[C@H](Cc1cnc[nH]1)NC(=O)[C@H](Cc1ccccc1)NC(=O)[C@H](Cc1ccc(O)cc1)NC(=O)[C@H](CS)NC(=O)[C@H](C)N)C(=O)N[C@@H](Cc1ccccc1)C(=O)N[C@@H](CCC(=O)O)C(=O)NCC(=O)N[C@@H](CC(N)=O)C(=O)N[C@@H](CC(=O)O)C(=O)N[C@@H](CCC(=O)O)C(=O)N[C@@H](CCC(=O)O)C(=O)N[C@H](C(=O)N[C@@H](CS)C(=O)N[C@@H](CCCCN)C(=O)N[C@@H](CCC(=O)O)C(=O)N[C@@H](Cc1c[nH]c2ccccc12)C(=O)N[C@@H](CS)C(=O)O)[C@@H](C)O (H-ACYFHCLFEGNDEETCKEWC-OH)
0.2 µM	CC(C)C[C@H](NC(=O)[C@H](CS)NC(=O)[C@H](CC(N)=O)NC(=O)[C@H](Cc1ccccc1)NC(=O)[C@H](Cc1ccc(O)cc1)NC(=O)[C@H](CS)NC(=O)[C@H](C)N)C(=O)N[C@@H](Cc1ccccc1)C(=O)N[C@@H](CCC(=O)O)C(=O)NCC(=O)N[C@@H](CCC(=O)O)C(=O)N[C@@H](CC(=O)O)C(=O)N[C@@H](CCC(=O)O)C(=O)N[C@@H](CCC(=O)O)C(=O)N[C@H](C(=O)N[C@@H](CS)C(=O)N[C@@H](CCCCN)C(=O)N[C@@H](CCC(=O)O)C(=O)N[C@@H](Cc1c[nH]c2ccccc12)C(=O)N[C@@H](CS)C(=O)O)[C@@H](C)O (H-ACYFNCLFEGEDEETCKEWC-OH)
2 µM	CC(C)C[C@H](NC(=O)[C@H](CS)NC(=O)[C@H](CC(N)=O)NC(=O)[C@H](Cc1ccccc1)NC(=O)[C@H](Cc1ccc(O)cc1)NC(=O)[C@H](CS)NC(=O)[C@H](C)N)C(=O)N[C@@H](Cc1ccccc1)C(=O)N[C@@H](CCC(=O)O)C(=O)NCC(=O)N[C@@H](CC(N)=O)C(=O)N[C@@H](CC(=O)O)C(=O)N[C@@H](CCC(=O)O)C(=O)N[C@@H](CCC(=O)O)C(=O)N[C@H](C(=O)N[C@@H](CS)C(=O)N[C@@H](CCCCN)C(=O)N[C@@H](CCC(=O)O)C(=O)N[C@@H](CCCNC(=N)N)C(=O)N[C@@H](CS)C(=O)O)[C@@H](C)O (H-ACYFNCLFEGNDEETCKERC-OH)
1.7 µM	CC(C)C[C@H](NC(=O)[C@H](CS)NC(=O)[C@H](CC(N)=O)NC(=O)[C@H](Cc1ccccc1)NC(=O)[C@H](Cc1ccc(O)cc1)NC(=O)[C@H](CS)NC(=O)[C@H](C)N)C(=O)N[C@@H](Cc1ccccc1)C(=O)N[C@@H](CCC(=O)O)C(=O)NCC(=O)N[C@@H](CC(N)=O)C(=O)N[C@@H](CC(=O)O)C(=O)N[C@@H](CCC(=O)O)C(=O)N[C@@H](CCC(=O)O)C(=O)N[C@H](C(=O)N[C@@H](CS)C(=O)N[C@@H](CCCCN)C(=O)N[C@@H](CCC(=O)O)C(=O)N[C@@H](Cc1c[nH]c2ccccc12)C(=O)N[C@@H](CS)C(=O)O)[C@@H](C)O (H-ACYFNCLFEGNDEETCKEWC-OH)
2.3 µM	CC(C)C[C@H](NC(=O)[C@H](CS)NC(=O)[C@H](CC(N)=O)NC(=O)[C@H](Cc1ccccc1)NC(=O)[C@H](Cc1ccc(O)cc1)NC(=O)[C@H](CS)NC(=O)[C@H](C)N)C(=O)N[C@@H](CC1CCCCC1)C(=O)N[C@@H](CCC(=O)O)C(=O)NCC(=O)N[C@@H](CC(N)=O)C(=O)N[C@@H](CC(=O)O)C(=O)N[C@@H](CCC(=O)O)C(=O)N[C@@H](CCC(=O)O)C(=O)N[C@H](C(=O)N[C@@H](CS)C(=O)N[C@@H](CCCCN)C(=O)N[C@@H](CCC(=O)O)C(=O)N[C@@H](Cc1c[nH]c2ccccc12)C(=O)N[C@@H](CS)C(=O)O)[C@@H](C)O (H-ACYFNCL[Cha]EGNDEETCKEWC-OH)
3 µM	CC(C)C[C@H](NC(=O)[C@H](CS)NC(=O)[C@H](CC(N)=O)NC(=O)[C@H](Cc1ccccc1)NC(=O)[C@H](Cc1ccc(O)cc1)NC(=O)[C@H](CS)NC(=O)[C@H](C)N)C(=O)N[C@@H](Cc1ccccc1Cl)C(=O)N[C@@H](CCC(=O)O)C(=O)NCC(=O)N[C@@H](CC(N)=O)C(=O)N[C@@H](CC(=O)O)C(=O)N[C@@H](CCC(=O)O)C(=O)N[C@@H](CCC(=O)O)C(=O)N[C@H](C(=O)N[C@@H](CS)C(=O)N[C@@H](CCCCN)C(=O)N[C@@H](CCC(=O)O)C(=O)N[C@@H](Cc1c[nH]c2ccccc12)C(=O)N[C@@H](CS)C(=O)O)[C@@H](C)O (H-ACYFNCL[Phe(2-Cl)]EGNDEETCKEWC-OH)
0.6 µM	CC(C)C[C@H](NC(=O)[C@H](CS)NC(=O)[C@H](CC(N)=O)NC(=O)[C@H](Cc1ccccc1)NC(=O)[C@H](Cc1ccc(O)cc1)NC(=O)[C@H](CS)NC(=O)[C@H](C)N)C(=O)N[C@@H](Cc1ccc(Cl)cc1)C(=O)N[C@@H](CCC(=O)O)C(=O)NCC(=O)N[C@@H](CC(N)=O)C(=O)N[C@@H](CC(=O)O)C(=O)N[C@@H](CCC(=O)O)C(=O)N[C@@H](CCC(=O)O)C(=O)N[C@H](C(=O)N[C@@H](CS)C(=O)N[C@@H](CCCCN)C(=O)N[C@@H](CCC(=O)O)C(=O)N[C@@H](Cc1c[nH]c2ccccc12)C(=O)N[C@@H](CS)C(=O)O)[C@@H](C)O (H-ACYFNCL[Phe(4-Cl)]EGNDEETCKEWC-OH)
3 µM	CC(C)C[C@H](NC(=O)[C@H](CS)NC(=O)[C@@H](NC(=O)[C@H](Cc1ccccc1)NC(=O)[C@H](Cc1ccc(O)cc1)NC(=O)[C@H](CS)NC(=O)[C@H](C)N)C(C)C)C(=O)N[C@@H](Cc1ccccc1)C(=O)N[C@@H](CCC(=O)O)C(=O)NCC(=O)N[C@@H](CC(N)=O)C(=O)N[C@@H](CC(=O)O)C(=O)N[C@@H](CCC(=O)O)C(=O)N[C@@H](CCC(=O)O)C(=O)N[C@H](C(=O)N[C@@H](CS)C(=O)N[C@@H](CCCCN)C(=O)N[C@@H](CCC(=O)O)C(=O)N[C@@H](Cc1c[nH]c2ccccc12)C(=O)N[C@@H](CS)C(=O)O)[C@@H](C)O (H-ACYFVCLFEGNDEETCKEWC-OH)
1.4 µM	CC(C)C[C@H](NC(=O)[C@H](CC(C)C)NC(=O)[C@H](CS)NC(=O)[C@H](CC(N)=O)NC(=O)[C@H](CC(C)C)NC(=O)[C@H](Cc1ccc(O)cc1)NC(=O)[C@H](CS)NC(=O)[C@H](C)N)C(=O)N[C@@H](CCC(=O)O)C(=O)NCC(=O)N[C@@H](CC(N)=O)C(=O)N[C@@H](CC(=O)O)C(=O)N[C@@H](CCC(=O)O)C(=O)N[C@@H](CCC(=O)O)C(=O)N[C@H](C(=O)N[C@@H](CS)C(=O)N[C@@H](CCCCN)C(=O)N[C@@H](CCC(=O)O)C(=O)N[C@@H](Cc1c[nH]c2ccccc12)C(=O)N[C@@H](CS)C(=O)O)[C@@H](C)O (H-ACYLNCLLEGNDEETCKEWC-OH)
3 µM	CC(C)C[C@H](NC(=O)[C@H](CS)NC(=O)[C@H](CC(N)=O)NC(=O)[C@H](CC1CCCCC1)NC(=O)[C@H](Cc1ccc(O)cc1)NC(=O)[C@H](CS)NC(=O)[C@H](C)N)C(=O)N[C@@H](Cc1ccccc1)C(=O)N[C@@H](CCC(=O)O)C(=O)NCC(=O)N[C@@H](CC(N)=O)C(=O)N[C@@H](CC(=O)O)C(=O)N[C@@H](CCC(=O)O)C(=O)N[C@@H](CCC(=O)O)C(=O)N[C@H](C(=O)N[C@@H](CS)C(=O)N[C@@H](CCCCN)C(=O)N[C@@H](CCC(=O)O)C(=O)N[C@@H](Cc1c[nH]c2ccccc12)C(=O)N[C@@H](CS)C(=O)O)[C@@H](C)O (H-ACY[Cha]NCLFEGNDEETCKEWC-OH)
